# Data from patent publication US8748624B2, “Picolinamido-propanoic acid derivatives useful as glucagon receptor antagonists” (Janssen Pharmaceutica NV, priority 2011, dated 2014).
# Like-named read-outs stand apart in the source and are kept apart here.
# Legend:
# [1] = target: human glucagon receptor (GCGR) (Homo sapiens (Human), UniProt P47871); assay: Inhibition of 125I-glucagon binding to membranes from HEK293 cells expressing the human glucagon receptor
# Procedure, shortened: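 Compound displacement of ¹²⁵I-glucagon (0.3 nM) was run for 2 h at room temperature in 50 mM HEPES pH 7.4 with 5 mM MgCl2, 1 mM CaCl2 and 0.2% BSA, using 6 μg/well membranes from stably transfected hGCGR HEK293 cells. Filter-bound counts gave IC50s, expressed as Ki.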
# human GCGR = human GCGR (Homo sapiens (Human), UniProt P47871); assay: Cellular functional assay, cAMP readout (glucagon-stimulated cAMP in HEK293 cells expressing human GCGR); type: cell-based; settings: hGluc-1 HEK cells
# Procedure, shortened: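 HEK293 cells stably transfected with full-length human GCGR were exposed to compound for 30 min before a 5-min challenge with […] (final) glucagon. Readout was TR-FRET (LANCE) cAMP versus standard curve; IC50s fitted by non-linear regression and converted to Ki values.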
# [2] = membranes of hGluc-1 HEK cells, 125I-glucagon 0.3 nM, 2 hours room temperature, IC50 converted to Ki, average if tested more than once
# [3] = LANCE TR-FRET, IC50 converted to Ki, average if tested more than once
# [4] = meta-substituted comparative compounds (Table 3), membranes of hGluc-1 HEK cells, 125I-glucagon 0.3 nM
# [5] = meta-substituted comparative compounds (Table 3)
# Sequence of human GCGR (P47871 26-477): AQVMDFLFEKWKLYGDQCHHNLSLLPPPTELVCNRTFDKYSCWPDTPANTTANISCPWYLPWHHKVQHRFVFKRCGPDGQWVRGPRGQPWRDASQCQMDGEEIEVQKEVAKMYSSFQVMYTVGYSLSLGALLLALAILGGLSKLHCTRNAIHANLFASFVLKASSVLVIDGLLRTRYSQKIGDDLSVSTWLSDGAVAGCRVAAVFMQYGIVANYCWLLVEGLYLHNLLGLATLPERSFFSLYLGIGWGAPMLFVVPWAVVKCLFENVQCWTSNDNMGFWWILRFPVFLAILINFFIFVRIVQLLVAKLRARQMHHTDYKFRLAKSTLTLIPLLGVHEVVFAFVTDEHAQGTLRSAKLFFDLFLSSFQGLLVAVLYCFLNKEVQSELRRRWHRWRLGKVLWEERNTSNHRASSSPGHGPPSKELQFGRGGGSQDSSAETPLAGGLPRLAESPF
# Sequence of human glucagon receptor (GCGR) (P47871 26-477): as above
Compound,"Ki [1, 2] [nM]",Ki (human GCGR; [3]) [nM],"Ki [1, 4] [nM]",Ki (human GCGR; [5]) [nM],Ki [1] [nM]
"O=C(O)CCNC(=O)c1ccc(-c2cc(C(F)(F)F)ccc2CNc2ccc(-c3ccc(C(F)(F)F)cc3Cl)cc2)cn1 [Compound 24, 3-(5-(2-(((2′-chloro-4′-(trifluoromethyl)-[1,1′-biphenyl]-4-yl)amino)methyl)-5-(trifluoromethyl)phenyl)picolinamido)propanoic acid]",28.3,32.4,,,
"O=C(O)CCNC(=O)c1ccc(-c2ccccc2CNc2ccc(-c3ccc(Cl)c(Cl)c3)cc2)cn1 [Compound 8, 3-(5-(2-(((3′,4′-dichloro-[1,1′-biphenyl]-4-yl)amino)methyl)phenyl)picolinamido)propanoic acid]",94.3,565,,,
"Cc1cc(C(F)(F)F)ccc1-c1ccc(NCc2ccc(C(F)(F)F)cc2-c2ccc(C(=O)NCCC(=O)O)nc2)cc1 [Compound 30, 3-(5-(2-(((2′-methyl-4′-(trifluoromethyl)-[1,1′-biphenyl]-4-yl)amino)methyl)-5-(trifluoromethyl)phenyl)picolinamido)propanoic acid]",19.3,19.4,,,
"O=C(O)CCNC(=O)c1ccc(-c2cc(Cl)ccc2CNc2ccc(-c3ccc(Cl)cc3)cc2)cn1 [Compound 6, 3-(5-(5-chloro-2-(((4′-chloro-[1,1′-biphenyl]-4-yl)amino)methyl)phenyl)picolinamido)propanoic acid]",40.1,50.5,,,
"O=C(O)CCNC(=O)c1ccc(-c2cc(Cl)ccc2CNc2ccc(-c3ccc(Cl)c(Cl)c3)c(C(F)(F)F)c2)cn1 [Compound 55, 3-(5-(5-chloro-2-(((3′,4′-dichloro-2-(trifluoromethyl)-[1,1′-biphenyl]-4-yl)amino)methyl)phenyl)picolinamido)propanoic acid]",156,650,,,
"COc1ccc(-c2ccc(C(=O)NCCC(=O)O)nc2)c(CNc2ccc(-c3ccc(Cl)c(Cl)c3)cc2)c1 [Compound 61, 3-(5-(2-(((3′,4′-dichloro-[1,1′-biphenyl]-4-yl)amino)methyl)-4-methoxyphenyl)picolinamido)propanoic acid]",,479,,,97.7
"O=C(O)CCNC(=O)c1ccc(-c2cc(C(F)(F)F)ccc2CNc2ccc(-c3ccc(C(F)(F)F)cc3)cc2)cn1 [Compound 29, 3-(5-(5-(trifluoromethyl)-2-(((4′-(trifluoromethyl)-[1,1′-biphenyl]-4-yl)amino)methyl)phenyl)picolinamido)propanoic acid]",30.4,62,,,
"O=C(O)CCNC(=O)c1ccc(-c2cc(Cl)ccc2CNc2ccc(-c3ccc(Cl)cc3Cl)cc2F)cn1 [Compound 11, 3-(5-(5-chloro-2-(((2′,4′-dichloro-3-fluoro-[1,1′-biphenyl]-4-yl)amino)methyl)phenyl)picolinamido)propanoic acid]",41.2,265,,,
"Cc1cc(C(F)(F)F)ccc1-c1ccc(NCc2ccc(C(F)(F)F)cc2-c2ccc(C(=O)NCCC(=O)O)nc2)cc1Cl [Compound 43, 3-(5-(2-(((2-chloro-2′-methyl-4′-(trifluoromethyl)-[1,1′-biphenyl]-4-yl)amino)methyl)-5-(trifluoromethyl)phenyl)picolinamido)propanoic acid]",17.2,21.9,,,
"O=C(O)CCNC(=O)c1ccc(-c2cc(C(F)(F)F)ccc2CNc2ccc(-c3ccc(C(F)(F)F)c(F)c3)c(Cl)c2)cn1 [Compound 39, 3-(5-(2-(((2-chloro-3′-fluoro-4′-(trifluoromethyl)-[1,1′-biphenyl]-4-yl)amino)methyl)-5-(trifluoromethyl)phenyl)picolinamido)propanoic acid]",26.6,47.4,,,
"O=C(O)CCNC(=O)c1ccc(-c2cc(C(F)(F)F)ccc2CNc2ccc(-c3ccc(F)c(C(F)(F)F)c3)cc2)cn1 [Compound 26, 3-(5-(2-(((4′-fluoro-3′-(trifluoromethyl)-[1,1′-biphenyl]-4-yl)amino)methyl)-5-(trifluoromethyl)phenyl)picolinamido)propanoic acid]",29.6,175,,,

# The remaining lines, values ahead:
"Ki [1, 2] [nM]",Ki (human GCGR; [3]) [nM],"Ki [1, 4] [nM]",Ki (human GCGR; [5]) [nM],Ki [1] [nM],Compound
,,> 5400,> 10400,,"O=C(O)CCNC(=O)c1ccc(-c2cc(Cl)cc(C(=O)Nc3ccc(-c4ccc(Cl)cc4)cc3)c2)cn1 [Compound M5, 3-(5-(3-chloro-5-((4′-chloro-[1,1′-biphenyl]-4-yl)carbamoyl)phenyl)picolinamido)propanoic acid, reference compound]"
,,> 1350,> 10400,,"O=C(O)CCNC(=O)c1ccc(-c2cc(Cl)cc(CNc3ccc(-c4ccc(Cl)cc4Cl)cc3)c2)cn1 [Compound M4, 3-(5-(3-chloro-5-(((2′,4′-dichloro-[1,1′-biphenyl]-4-yl)amino)methyl)phenyl)picolinamido)propanoic acid, reference compound]"
95.7,500,,,,"Cc1cc(-c2ccc(NCc3cc(F)c(F)cc3-c3ccc(C(=O)NCCC(=O)O)nc3)cc2C#N)ccc1F [Compound 115, 3-(5-(2-(((2-cyano-4′-fluoro-3′-methyl-[1,1′-biphenyl]-4-yl)amino)methyl)-4,5-difluorophenyl)picolinamido)propanoic acid]"
37.4,175,,,,"O=C(O)CCNC(=O)c1ccc(-c2cc(C(F)(F)F)ccc2CNc2ccc(-c3cccc(F)c3)cc2)cn1 [Compound 62, 3-(5-(2-(((3′-fluoro-[1,1′-biphenyl]-4-yl)amino)methyl)-5-(trifluoromethyl)phenyl)picolinamido)propanoic acid]"
40,151,,,,"Cc1ccc(CNc2ccc(-c3ccc(Cl)cc3)cc2)c(-c2ccc(C(=O)NCCC(=O)O)nc2)c1 [Compound 68, 3-(5-(2-(((4′-chloro-[1,1′-biphenyl]-4-yl)amino)methyl)-5-methylphenyl)picolinamido)propanoic acid]"
,,> 2700,> 10400,,"COc1ccc(-c2ccc(NCc3cc(Cl)cc(-c4ccc(C(=O)NCCC(=O)O)nc4)c3)cc2)cc1 [Compound M2, 3-(5-(3-chloro-5-(((4′-methoxy-[1,1′-biphenyl]-4-yl)amino)methyl)phenyl)picolinamido)propanoic acid, reference compound]"
62.6,390,,,,"O=C(O)CCNC(=O)c1ccc(-c2cc(Cl)ccc2CNc2ccc(-c3cccc(C(F)(F)F)c3)cc2)cn1 [Compound 130, 3-(5-(5-chloro-2-(((3′-(trifluoromethyl)-[1,1′-biphenyl]-4-yl)amino)methyl)phenyl)picolinamido)propanoic acid]"
,121,,,22.9,"O=C(O)CCNC(=O)c1ccc(-c2cc(Cl)ccc2CNc2ccc(-c3ccc(F)cc3Cl)c(Cl)c2)cn1 [Compound 138, 3-(5-(5-chloro-2-(((2,2′-dichloro-4′-fluoro-[1,1′-biphenyl]-4-yl)amino)methyl)phenyl)picolinamido)propanoic acid]"
15.7,60,,,,"O=C(O)CCNC(=O)c1ccc(-c2cc(Cl)ccc2CNc2ccc(-c3ccc(C(F)(F)F)cc3Cl)cc2)cn1 [Compound 147, 3-(5-(5-chloro-2-(((2′-chloro-4′-(trifluoromethyl)-[1,1′-biphenyl]-4-yl)amino)methyl)phenyl)picolinamido)propanoic acid]"
43.5,170,,,,"N#Cc1cc(NCc2cc(F)c(F)cc2-c2ccc(C(=O)NCCC(=O)O)nc2)ccc1-c1ccc(Cl)cc1 [Compound 110, 3-(5-(2-(((4′-chloro-2-cyano-[1,1′-biphenyl]-4-yl)amino)methyl)-4,5-difluorophenyl)picolinamido)propanoic acid]"
